# Results: patent US9701667B2, “Coumarin-based fluorogenic agents and uses thereof for specific protein labelling” (UNIVERSITY OF OTTAWA, priority 2014, dated 2017)
# “Also recorded” adds a separate entry of the source.
# Legend:
# MBP-dC10α [1] = assay: Fluorescence properties and fluorescence enhancement (FE) before/after labelling of model target protein; assay type: biochemical
# Description: For experiments described herein, maltose-binding protein (MBP) was chosen as a highly-soluble test protein and the dC10α tag was fused to its C-terminus (MBP-dC10α) as described previously (Guy, J. et al., Mol. Biosyst. 2010, 6, 976-987).
# Emission spectra and fluorescence intensity measurements were recorded at 37° C. with a Synergy H4 Hybrid Multi-Mode Microplate Reader with excitation and emission monochromators set at 9 nm bandpass. The mixture of 100 μM solution of fluorogen (YCx) and 100 μM MBP-dC10 in 50 mM HEPES buffer (pH 7.4) with 5% DMSO was incubated at 37° C. in the dark for 12 hours, after which the fluorescence emission spectrum of a dilution (25 μM final) in 50 mM HEPES buffer with 5% DMSO was recorded. The emission spectra of the corresponding labelling reagent in same solution without MBP-dC10α were also recorded. The ratio of fluorescence intensity at maximum emission gave the fluorescence enhancement (FE) ratio.
# MBP-dC10α [2] = assay: Time-dependent fluorescence increase on reaction with test protein; assay type: biochemical; settings: MBP-dC10 versus GSH
# Description: (§1) Reactivity was tested through the time-dependent fluorescence increase at 37° C. using Synergy H4 Hybrid Multi-Mode Microplate Reader with excitation and emission monochromators set to 9 nm bandpass. All reactions were prepared in 50 mM HEPES buffer (pH 7.4) with 5% DMSO. Solutions of MBP-dC10α or GSH were prepared in 96-well plates and labelling reagent (YCx) in DMSO was added immediately before recording. The final concentration of labelling reagent was 25 μM, the final concentration of MBP-dC10α was 25 μM and the final concentration of GSH was 50 μM or 1 mM in 50 mM HEPES buffer (pH 7.4) with 5% DMSO. Samples were excited at 440 nm and fluorescence intensity was followed at 485 nm as a function of time.
# [3] = Time-dependent fluorescence increase on reaction with GSH; settings: 25 μM fluorogen, 1 mM GSH
# Description: as §1
# HEK293T cells = assay: MTT cytotoxicity assay; assay type: cell-based, human; settings: 20 h incubation
# Description: 3-(4,5-Dimethylthiazol-2-yl)-2,5-diphenyl tetrazolium bromide (MTT) is a yellow tetrazolium salt and can be reduced to formazan crystals, which are insoluble in aqueous solutions, by active mitochondria in living cells. The resulting intracellular purple formazan can be dissolved in Triton X100, and therefore quantified by measuring absorption of the solution.
# Cells were seeded in a 96-well plate and incubated with 100 μL of culture medium with different amounts of the fluorogen YCx for 16 h. No fluorogen was added to the positive control and no cells were plated in the negative control. Portions of 25 μL of MTT solution (5 mg in 1 mL of Hanks' balanced salt solution) were added to the wells and the cells were further incubated at 37° C. for 4 h. Solubilization solutions (100 μL) were then added and incubated in 96-well plates at room temperature in the dark overnight. The absorption of each well was measured using a plate reader at a wavelength of 570 nm with 690 nm as a reference. Cell viability was calculated according to the following equation: Cell viability=(Awith fluorogen−Anegative control)/(Apositive control−Anegative control).
# dC10α-actin = target: T1, dC10α-actin (Homo sapiens, UniProt P60709); assay: No-wash intracellular labelling of dC10α-actin in HEK 293T cells; assay type: cell-based; settings: 10 μM YC20, 45 min
# T1 construct: expressed in transfected cells; host or cells: HEK 293T
# Description: (§2) The no-wash fluorogenic labelling reagent YC20 was used to label cellular proteins localized in different parts of living HEK 293T cells. Histone-H2B, localized in the nuclei, and actin, localized as filaments in the cytosol, were chosen as the test proteins. […] HEK293T cells were transfected to express histone H2B-dC10α or dC10α-actin and then labeled with YC20 for 45 min and directly imaged by fluorescent microscopy without any washing steps (FIG. 13; see, also, Chen, Y. et al., Angew. Chem. Int. Ed. Engl., 2014, 53, 13785-13788, the entire contents of which are hereby incorporated by reference).
# (§3) Transfection and labelling were performed as follows: HEK 293T cells were plated into 60-mm dishes and grown in MEM supplemented with 10% FBS, 100 units/mL of penicillin and 100 μg/mL of streptomycin for 16 h before transfection. Cells were transiently transfected with plasmid DNA encoding for dC10α-actin or histone H2B-dC10α or with pcDNA3.1 (mock) using lipofectamine 2000 following manufacturer's instructions. Twenty-four or forty-eight hours after transfection, the cells were incubated with 10 μM YC20 (in Opti-MEM with 0.2% DMSO) for 45 min at 37° C. Cells were observed and imaged on a Nikon confocal microscope with a 25× objective. Images were taken and analyzed with NIS-Elements software.
# histone H2B-dC10α [4] = assay: No-wash intracellular labelling of histone H2B-dC10α in HEK 293T cells; assay type: cell-based, human; settings: 10 μM YC20, 45 min
# Description: as §2, §3
# histone H2B-dC10α [5] = assay: Intracellular labelling of histone H2B-dC10α in HeLa cells; assay type: cell-based, human; settings: 10 μM YC20, 10 minutes
# Description: HeLa cells were transfected with plasmid DNA encoding histone H2B-dC10α as described below and labelled with 10 μM YC20 for 10 minutes.
# Transfection and labelling were performed as follows: HeLa cells were propagated for 2-3 weeks until the cells were stable and healthy for the transfection and labelling experiments. Cells were plated in 35 mm culture dishes (approx. 1.3×10^5 cells/plate in 2 mL of MEM or DMEM media) and incubated at 37° C. (5% CO2) for 12-16 h, after which they were transfected with the plasmid DNA encoding for the expression of histone H2B C-terminally tagged with dC10α, using 3-fold lipofectamine […] (H2B-dC10α and 6 μg of lipofectamine). For the transfections the media was changed from MEM/DMEM to OPTI-MEM and the transfection time was 45 min. The media was then changed back to MEM/DMEM and the cells were allowed to express protein for 48 h (37° C. and 5% CO2), after which the cells were treated with the corresponding fluorogen. For FlARe labelling, cells were treated with 10 μM of YC20 in 2 mL OPTI-MEM (containing 0.02% F127 and 0.2% DMSO) and incubated at 37° C. and 5% CO2 for 10 minutes.
compound,measurement,setting,value
"CCN(CC)c1ccc2cc(C(=O)Nc3cc(N4C(=O)C=C(OC)C4=O)cc(N4C(=O)C=C(OC)C4=O)c3)c(=O)oc2c1 [YC20, N-(3,5-bis(3-methoxy-2,5-dioxo-2,5-dihydro-1H-pyrrol-1-yl)phenyl)-7-(diethylamino)-2-oxo-2H-chromene-3-carboxamide]",fluorescence intensity change (fluorescence enhancement),"MBP-dC10α [1]; after labelling with MBP-dC10, λex = 440 nm",29 fold
same,fluorescence after the labelling reaction,MBP-dC10α [1]; after reaction with MBP-dC10α,strong fluorescence
same,background (intrinsic) fluorescence before labelling / quenching,MBP-dC10α [1]; fluorogen without target protein,negligible background fluorescence
same,selectivity of labelling target protein over GSH,MBP-dC10α [2],most selective labelling reagent
same,reaction with high concentration (large excess) of GSH,[3],extremely slow; also recorded: did not give any fluorescence signal
same,"cytotoxicity (cell viability, MTT)",HEK293T cells,neither showed any cytotoxicity up to 100 μM
same,fluorescence in pcDNA transfected (mock) cells,dC10α-actin; HEK 293T mock cells,negligible fluorescence
same,labelling of dC10α-actin (cyan channel),dC10α-actin; HEK 293T,filament structures in the cytosol were clearly visible
same,labelling of histone H2B-dC10α (cyan channel),histone H2B-dC10α [4],only the nuclei were fluorescently labeled
same,labelling of histone H2B-dC10α (cyan channel),histone H2B-dC10α [5],nuclei were strongly fluorescently labeled
